Laboratory results taken from US9837801B2, “Gas-insulated medium or high-voltage electrical apparatus including carbon dioxide, oxygen, and heptafluoro-isobutyronitrile” (Alstom Technology Ltd., priority 2013, dated 2017).

Test: Toxicity (LC50, lethal concentration 50%)
Type: in vivo
Source text: In addition, […], toxicity is further reduced by […], which classifies it in the field of gases considered to be “practically non-toxic” (toxicity classification 5, according to the Hodge and Sterner toxicity scale).

Compound: N#CC(F)(C(F)(F)F)C(F)(F)F [Heptafluoroisobutyronitrile, 2,3,3,3-tetrafluoro-2-trifluoromethyl propanenitrile]
- specific toxicity for humans (humans): no specific toxicity
- LC50 (lethal concentration, 50%) (pure heptafluoroisobutyronitrile): greater than 15,000 ppm
